Laboratory results reported in patent publication US11576916B2, “Methods of preventing or treating ophthalmic diseases” (KINARUS AG, priority 2017, dated 2023).
Counter-ions that a name gives are not always drawn.

What was measured:
[1] = tested on: choroidal neovascularization (CNV) in a mouse model of age-related macular degeneration; assay: Laser-induced CNV mouse model of AMD: isolectin B4 staining of choroidal flat-mounts (CNV lesion area); assay type: in vivo, C57BL/6J mice; details: for Formation of CNV in mice, in words: conclusion of the study, versus vehicle
Protocol: (§1) CNV (choroidal neovascularization) in mice or rats is an accepted model to mimic the wet form of age-related macular degeneration (AMD). The model is induced by laser photocoagulation which creates breaks in Bruchs membrane. The subsequent pathological cascade includes inflammation, angiogenesis and proteolysis.
(§2) A study in a mouse model was performed to evaluate the efficacy of pioglitazone and pamapimod each alone or in combination on the development of CNV. Three laser burns were used to induce CNV in the eyes of C57Bl/6J mice. Pioglitazone or pamapimod or the combination of pioglitazone/pamapimod were administered orally once daily to groups of animals starting one day prior to lasering.
(§3) Male 7-week old C57BL/6J mice (Janvier Labs, France) were obtained and housed at a constant temperature (22±+1° C.) in a light-controlled environment with ad libitum access to food and water.
(§4) For CNV induction, animals were anesthetized with an intraperitoneal injection of ketamine (37.5 mg/kg; Ketalar, Pfizer Oy Animal Health, Helsinki, Finland) and medetomidine (0.45 mg/kg; Domitor, Orion Oy, Espoo, Finland). A drop of 0.5% tropicamid (Santen) was applied on the cornea to dilate the pupils. Laser photocoagulation was performed once using a 532 nm diode laser Lumenis Novus Spectra (Lumenis Ltd., Israel) attached to a slit lamp. A coverslip and Viscotears® gel (Novartis) were used to applanate the cornea. Three laser lesions were performed per eye. Following lasering, anesthesia was reversed by u2-antagonist medetomidine, atipamezole (0.5 mg/kg i.p., Antisedan, Orion Pharma, Espoo, Finland).
(§5) Oral drug formulations were prepared in a vehicle adjusted to 4.8±0.05 using buffer. Test compounds [pioglitazone HCl (2.5 mg/ml), pamapimod (10 mg/ml) and combination pioglitazone HCl (2.5 mg/ml)+pamapimod (10 mg/ml)] were formulated in this vehicle and sonicated prior to administration (approx. 3 min).
Aflibercept (Eylea®, Bayer Pharma AG) was purchased as a ready-to-use solution for intravitreal injections at a concentration of 40 mg of aflibercept in 1 ml solution. The dose of 80 μg (injection volume of 2 μl) of aflibercept per mouse eye was used in the present study. […]
The flat-mount choroids were stained with fluorescein-labeled isolectin B4 (Vector Laboratories) to detect lesion CNV area and imaged using Leica DM IRBE microscope (Leica Microsystems, Germany) with an epifluorescent attachment and analyzed using Image J software (v.1.51f, National Institutes of Health, USA).
Quantitative data was graphed and analyzed using GraphPad Prism software (v. 7.0, GraphPad Software Inc.). […]

[2] = tested on: choroidal neovascularization (CNV) in a mouse model of age-related macular degeneration; assay: Laser-induced CNV mouse model of AMD: retinal thickness by SD-OCT; assay type: in vivo, C57BL/6J mice; details: after 14 days of treatment; for CNV area retinal thickness, comparison between treatments (in words): versus vehicle, single agents or positive control aflibercept; for Difference in retinal thickness in CNV area as compared to the total retinal thickness: mean ± SD per lesion, vehicle 19.9 ± 20.7; for Difference in retinal thickness in CNV area as compared to the total retinal thickness / Total retinal thickness: SD-OCT, pioglitazone/pamapimod oral once daily, aflibercept 80 μg IVT per eye; for Total retinal thickness: mean ± SD
Protocol: as §1, §2, §3, §4, §5
Aflibercept (Eylea®, Bayer Pharma AG) was purchased as a ready-to-use solution for intravitreal injections at a concentration of 40 mg of aflibercept in 1 ml solution. The dose of 80 μg (injection volume of 2 μl) of aflibercept per mouse eye was used in the present study.
Compounds were administered either orally by gastric lavage (pioglitazone, pamapimod) at a dose of 0.2 ml volume per 20 g mouse weight or by IVT (aflibercept) using a 5 μl glass microsyringe (Hamilton Bonaduz AG, Bonaduz, Switzerland). Aflibercept was injected only into the lasered right eye. The injection volume was 2 μl per eye.
CNV lesions were monitored using Envisu R2200 SD-OCT (Spectral Domain Optical Coherence Tomography system; Bioptigen Inc./Leica) in anesthetized mice as described above. The thickness of each retina was measured from 24 sites of randomly overlaid grid and at all three lasered sites. The total retinal thickness was considered as the thickness of all layers from nerve fiber layer to RPE (healthy measurement sites) or to an implied line connecting the RPE around the site of damage (lasered sites).
Quantitative data was graphed and analyzed using GraphPad Prism software (v. 7.0, GraphPad Software Inc.). The D'Agostino & Pearson normality test was used for each parameter. […] Differences were considered to be statistically significant at the P<0.05 level.

Row | Compound | Formation of CNV in mice, in words [1] | CNV area retinal thickness, comparison between treatments (in words) [2] | Difference in retinal thickness in CNV area as compared to the total retinal thickness ([2]; HCl) [%] | Difference in retinal thickness in CNV area as compared to the total retinal thickness ([2]; listed as pioglitazone, HCl) [%] | Total retinal thickness [2] [μm] | Isolectin B4 positive area per CNV lesion (new vessel area), in words ([1]; choroidal flat-mounts, after 14 days of treatment, Kruskal-Wallis test with Dunn's multiple comparisons) | Difference in retinal thickness in CNV area as compared to the total retinal thickness [2] [%] | Difference in retinal thickness in CNV area as compared to the total retinal thickness ([2]; listed as pamapimod) [%]
1 | CCc1ccc(CCOc2ccc(CC3SC(=O)NC3=O)cc2)nc1 (centres unmarked) [STR001, pioglitazone HCl, reference compound] | significantly decreased | superior to the positive control Aflibercept | 9.86 ± 17.7 | 9.86±17.7 | 215.8 ± 2.9 | – | – | –
2 | Cn1c(=O)c(Oc2ccc(F)cc2F)cc2cnc(NC(CCO)CCO)nc21 [STR002, 6-(2,4-Difluorophenoxy)-2-[3-hydroxy-1-(2-hydroxyethyl)-propylamino]-8-methyl-8H-pyrido[2,3-d]pyrimidin-7-one] | significantly decreased | superior to the positive control Aflibercept | – | – | 216.2 ± 6.0 | significantly different from the pioglitazone alone group | 7.75 ± 22.4 | 7.75±22.4
3 | Aflibercept: Aflibercept (Eylea®, Bayer Pharma AG), ready-to-use solution for intravitreal injections; positive control | significantly decreased | – | – | – | 215.7 ± 6.5 | – | 16.1±26.7 | –
